The values that follow come from paper PMC5835316 (Chemosphere, 2017).

Where two headings read alike, the source gives them in different places.

The subject of data set [1] is zebrafish (Danio rerio) embryo. Put plainly: zebrafish embryo teratogenicity assay. As to conditions: for EC50/LC50: retinoids, deformity equivalent to mortality, probit analysis; for percent deformity: 15, 30 and 60 µM (≥ 15 µM); for EC50: read-out: EC50 (for teratogenicity) and LC50, equivalently calculated.
The next data set deals with RAR. As to conditions: ref Repa et al., 1993; cited from earlier work.
The format of data set [2] is physicochemical. As to conditions: mild heating; standing at room temperature and ambient light.
For data set [3], the system named is zebrafish (Danio rerio) embryo. As to conditions: ref Hermann, 1995; Selderslaghs et al., 2009; Wang et al., 2014; cited from earlier work.

With `CC1=C(/C=C/C(C)=C/C=C/C(C)=C/C=C/C=C(C)/C=C/C=C(C)/C=C/C2=C(C)C[C@@H](O)CC2(C)C)C(C)(C)C[C@H](O)C1` [zeaxanthin], in data set [1] (60 µM, 3 dpf), the “observed deformities (Fig. 5)” value was “little effect”. Besides, in data set [1] (3–5 dpf, 60 µM), the embryo development entry is reported as “developed normally”. Further, in data set [1] (5-day exposure studies, 1-60 µM), the teratogenicity entry was “no teratogenicity was observed”.
Take `CC1=C(/C=C/C(C)=C/C=C/C(C)=C/C=O)C(C)(C)CCC1` [retinal, all-trans retinaldehyde]: the EC50/LC50 in data set [1] worked out at 1.8 ± 0.7 µM. The “binding affinity to RAR” value in the data set with RAR is reported as “essentially no binding affinity”.
`CC1=C(/C=C/C(C)=C/C=C/C(C)=C/C=C/C=C(C)/C=C/C=C(C)/C=C/C=C(C)/C=C/[C@H](O[C@@H]2O[C@@H](C)[C@@H](O)[C@@H](O)[C@@H]2O)C(C)(C)O)C(C)(C)C[C@H](O)C1` [Compound 1, Myxol 2′-glycoside]: in data set [1] (5 µM, 3 and 5 dpf), the “observed deformities (Fig. 5)” value is “head and eye hypoplasia, truncated tail and pericardial edema”. For the same molecule, in data set [1] (by 3 dpf), the “concentration showing pronounced developmental dysfunction” value was at least 5 µM and the percent deformity came out at 100%. Further, the EC50 – broadly, the concentration giving half of the maximal effect – in data set [1] (at 5 dpf, ± standard error) was 2.4 ± 0.9 µM. Further, the stability result in data set [2] is listed as “highly unstable”.
Take `CC1=C(/C=C/C(C)=C/C=C/C(C)=C/CO)C(C)(C)CCC1` [retinol]: the EC50/LC50 in data set [1] is on record as 9.2 ± 7.6 µM.
For `CC1=C(/C=C/C(C)=C/C=C/C(C)=C/C(=O)O)C(C)(C)CCC1` [RA, all-trans retinoic acid], the “teratogenicity at lowest concentration tested” value in data set [1] (1 µM) is on record as “effectively lethal”. Also, the “observed deformities (Fig. 5)” value in data set [1] (1 µM, 3 dpf and 5 dpf) was “severely arrested development of the body axis including head and eye hypoplasia and truncated tail”. Besides, the “LC50 and EC50 (for teratogenicity) previously reported in the zebrafish embryo” value in data set [3] is given as “nanomolar to sub-nanomolar range”.
As to `CC1=C(/C=C/C(C)=C/C=C/C(C)=C/C=C/C=C(C)/C=C/C=C(\C)C=O)C(C)(C)CCC1` [β-apo-8’carotenal, trans-β-apo-8’carotenal], the teratogenicity entry in data set [1] (at 3 dpf) is listed as “no teratogenicity was observed”. In addition, in data set [1] (at 5 dpf, not significantly different from controls), the “developmental toxicity (percent deformity)” value was ~ 22%.
In the case of `CC1=C(/C=C/C(C)=C/C=C/C(C)=C/C=C/C=C(C)/C=C/C=C(C)/C=C/C2=C(C)C(=O)CCC2(C)C)C(C)(C)CCC1=O` [canthaxanthin], in data set [1] (30 µM, 3 dpf), the “observed deformities (Fig. 5)” value is “head and eye hypoplasia and truncated tail”. Further, the “percent deformity (development toxicity)” value in data set [1] (2 dpf, 60 µM) was “approximately 89%”. Further, the percent deformity in data set [1] (by 3 dpf) turned out to be 100%. Besides, the EC50 in data set [1] (at 5 dpf, ± standard error) was 8.7 ± 1.8 µM.
In the case of “4-Hydroxymyxol 2′-glycoside [Compound 3]”, the “teratogenicity (qualitative, bioassay-guided fractionation)” value in data set [1] (in vivo) is given as “single bioactive component”.
Take 4-Ketomyxol 2′-glycoside [Compound 2]: in data set [1] (3 and 5 dpf), the “observed deformities (Fig. 5)” value is “head and eye hypoplasia and truncated tail”. Besides, in data set [1] (by 3 dpf), the “additional concentration with significant percent deformity” value is listed as 5 µM, the “concentration showing pronounced developmental dysfunction” value is at least 5 µM and the percent deformity was found to be 100%. The EC50 in data set [1] (at 5 dpf, ± standard error) is 1.8 ± 0.2 µM. The stability result in data set [2] was “highly unstable”.
Turning to `CC1=C(/C=C/C(C)=C/C=C/C(C)=C/C=C/C=C(C)/C=C/C=C(C)/C=C/C2=C(C)CCCC2(C)C)C(C)(C)CCC1` [β-carotene], the “observed deformities (Fig. 5)” value in data set [1] (30 µM, 5 dpf) is “truncated tail and pericardial edema”. In data set [1] (Danio rerio), the EC50 is 23.5 ± 8.9 µM.
Consider `CC1=C[C@H](O)CC(C)(C)[C@H]1/C=C/C(C)=C/C=C/C(C)=C/C=C/C=C(C)/C=C/C=C(C)/C=C/C1=C(C)C[C@@H](O)CC1(C)C` [lutein], for which the “observed deformities (Fig. 5)” value in data set [1] (30 µM) is “head and eye hypoplasia and truncated tail”. The EC50 in data set [1] (Danio rerio) is 4.7 ± 3 µM. In data set [1] (by 3 dpf), this molecule yielded a percent deformity of 100%.
